Reference: US20170135948A1, “COMPOSITION COMPRISING EXTRACT OF AUTUMN SOYBEAN LEAVES” (AMOREPACIFIC CORPORATION, priority 2014, published 2017)

Columns and labels:
collagenase = assay: Collagenase production inhibition test in human fibroblasts; type: cell-based; settings: 10^−4 M tocopherol or EGCG, 24 hours, untreated group = 100
Method: The activity of inhibiting collagenase production of the soybean leaf extracts of stages VC, V2, V4, R2, R4, R6 and R7 prepared in Example 1 was compared with those of tocopherol (Comparative Example 1) and EGCG (Comparative Example 2). Tocopherol and EGCG are known to prevent skin aging by regenerating epidermal cells.
Human fibroblasts (Cascade Biologics, Portland, Oreg., USA) were added to a 96-well microtiter plate containing Dulbecco's modified Eagle's medium (DMEM) supplemented with 2.5 wt % fetal bovine serum, at 5,000 cells/well, and cultured to about 90% confluence. Then, after culturing in serum-free DMEM for 24 hours and treating with 100 μg/mL of each of the soybean leaf extracts of stages VC, V2, V4, R2, R4, R6 and R7 prepared in Example 1 or 10^−4 M tocopherol or EGCG (Sigma Aldrich) for 24 hours, the cell culture was harvested.
The production of collagenase in the cell culture harvested was measured using a collagenase measuring system (Amersham Pharmacia, USA). […]
A absorbance of a cell culture obtained without treating with the composition was used as a control group. That is to say, the expression level of collagenase in the group treated with the test substance was calculated relative to that of the untreated group as 100.
Collagenase expression level (%)=Absorbance of group treated with test substance/Absorbance of control group×100 [Equation 1]

[1] = Irritation test (pricking, flushing) on the face of 15 panels sensitive to irritation; type: in vivo
Method: Retinol as a known antiaging substance and the autumn soybean leaf (stage R7) extract as an active ingredient of the present disclosure were tested comparatively for irritation by 15 panels who are sensitive to irritation such as pricking, flushing, etc.
The panels were asked to apply 0.5 mL of retinol (purchased from Sigma) or the autumn soybean leaf extract obtained in Example 1 (1 mg/mL) randomly on each face and score between 0 and 3.0 points with 0.1-point intervals.
1.1-2.0: Moderate irritation.
2.1-3.0: Severe irritation.

[2] = Antioxidative activity test based on DPPH reduction; type: biochemical; settings: sample concentration at which absorbance at 540 nm decreased by 50%; 100 μM DPPH, 37° C., 30 minutes
Method: In order to investigate the antioxidative activity of the soybean leaf extracts of stages VC, V2, V4, R2, R4, R6 and R7 prepared in Example 1, the effect of inhibiting the oxidation of the free radical 1,1-diphenyl-2-picrylhydrazyl (DPPH) was compared by measuring the change in absorbance caused by reduction of DPPH.
190 μL of a 100 μM (in ethanol) DPPH solution and each of the soybean leaf extracts of stages VC, V2, V4, R2, R4, R6 and R7 obtained in Example 1 and 10,000 ppm Trolox (positive control), a synthetic antioxidant are prepared at a concentration of 10,000 ppm, diluted to a final concentration of 500 ppm, 250 ppm, 125 ppm, 62.5 ppm, 31.25 ppm or 15.63 ppm. 10 μL of each of them were mixed to prepare a reaction solution, and absorbance was measured at 540 nm after incubation at 37° C. for 30 minutes. IC50 means the sample concentration when the absorbance was decreased by 50% due to the added sample.

[3] = score 0 to 3.0 points, 0.5 mL applied on face, extract 1 mg/mL, 15 panels

O=C(O[C@@H]1Cc2c(O)cc(O)cc2O[C@@H]1c1cc(O)c(O)c(O)c1)c1cc(O)c(O)c(O)c1 [EGCG (Comparative Example 2), EGCG]
Collagenase expression level (%) (collagenase): 61%

CC1=C(/C=C/C(C)=C/C=C/C(C)=C/CO)C(C)(C)CCC1 [Retinol]
Irritation such as pricking and flushing (in words) ([1]; grade by the scoring standard, 0.5 mL applied on face): slight irritation | Mean (irritation score) ([1]; mean of pricking and flushing scores, 0 to 3.0 points): 0.65 | Flushing (irritation score) [1, 3]: 0.42 | Pricking (irritation score) [1, 3]: 0.87

Cc1c(C)c2c(c(C)c1O)CC[C@@](C)(CCC[C@H](C)CCC[C@H](C)CCCC(C)C)O2 [Tocopherol (Comparative Example 1), tocopherol]
Collagenase expression level (%) (collagenase): 74%

Cc1c(C)c2c(c(C)c1O)CCC(C)(C(=O)O)O2 (stereo not shown) [Trolox (positive control), Trolox]
IC50 (ppm) [2]: 38 ppm
